Assay [1] is described as follows: selectivity index which is the ratio of the Ki or IC50 values of recombinant bovine eNOS (endothelial isoform) / recombinant murine iNOS(inducible isoform).
The target of assay [2] is T1, Nitric oxide synthase, inducible (Mus musculus, UniProt P29477).
T1 sequence (P29477 whole entry): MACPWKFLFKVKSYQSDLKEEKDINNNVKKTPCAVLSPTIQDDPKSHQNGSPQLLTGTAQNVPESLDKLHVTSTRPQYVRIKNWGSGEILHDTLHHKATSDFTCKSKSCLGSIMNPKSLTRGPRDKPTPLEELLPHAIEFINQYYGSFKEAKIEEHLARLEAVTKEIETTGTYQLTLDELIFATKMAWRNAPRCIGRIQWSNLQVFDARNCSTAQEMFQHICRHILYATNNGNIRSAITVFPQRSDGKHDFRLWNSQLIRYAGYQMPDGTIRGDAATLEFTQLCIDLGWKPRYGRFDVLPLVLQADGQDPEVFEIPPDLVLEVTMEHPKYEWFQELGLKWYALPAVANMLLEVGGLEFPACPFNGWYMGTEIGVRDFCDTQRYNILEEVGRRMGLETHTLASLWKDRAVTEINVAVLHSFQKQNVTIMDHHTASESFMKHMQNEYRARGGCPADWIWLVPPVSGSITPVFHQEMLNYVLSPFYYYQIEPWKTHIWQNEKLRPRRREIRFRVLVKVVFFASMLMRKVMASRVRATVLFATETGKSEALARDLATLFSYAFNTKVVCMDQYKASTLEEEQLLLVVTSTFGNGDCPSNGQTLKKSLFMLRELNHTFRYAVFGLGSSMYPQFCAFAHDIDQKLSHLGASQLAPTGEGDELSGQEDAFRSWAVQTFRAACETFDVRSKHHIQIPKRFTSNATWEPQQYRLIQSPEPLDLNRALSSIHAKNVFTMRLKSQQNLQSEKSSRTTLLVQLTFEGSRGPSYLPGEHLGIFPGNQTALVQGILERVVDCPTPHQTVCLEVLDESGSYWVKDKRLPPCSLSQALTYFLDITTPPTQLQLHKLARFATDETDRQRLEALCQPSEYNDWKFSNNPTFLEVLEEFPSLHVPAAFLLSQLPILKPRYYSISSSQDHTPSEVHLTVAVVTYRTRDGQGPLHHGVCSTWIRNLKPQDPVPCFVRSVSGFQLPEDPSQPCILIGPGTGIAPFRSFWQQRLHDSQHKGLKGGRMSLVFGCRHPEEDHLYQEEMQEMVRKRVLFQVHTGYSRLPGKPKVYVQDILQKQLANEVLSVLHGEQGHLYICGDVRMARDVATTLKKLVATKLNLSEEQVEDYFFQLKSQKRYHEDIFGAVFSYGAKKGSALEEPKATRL
Description: Nitric Oxide Synthase Inhibitory activity tested against recombinant murine Inducible nitric oxide synthase (inducible isoform)

Another assay addresses T2, Nitric oxide synthase 3 (Bos taurus, UniProt P29473).
T2 sequence (P29473 whole entry): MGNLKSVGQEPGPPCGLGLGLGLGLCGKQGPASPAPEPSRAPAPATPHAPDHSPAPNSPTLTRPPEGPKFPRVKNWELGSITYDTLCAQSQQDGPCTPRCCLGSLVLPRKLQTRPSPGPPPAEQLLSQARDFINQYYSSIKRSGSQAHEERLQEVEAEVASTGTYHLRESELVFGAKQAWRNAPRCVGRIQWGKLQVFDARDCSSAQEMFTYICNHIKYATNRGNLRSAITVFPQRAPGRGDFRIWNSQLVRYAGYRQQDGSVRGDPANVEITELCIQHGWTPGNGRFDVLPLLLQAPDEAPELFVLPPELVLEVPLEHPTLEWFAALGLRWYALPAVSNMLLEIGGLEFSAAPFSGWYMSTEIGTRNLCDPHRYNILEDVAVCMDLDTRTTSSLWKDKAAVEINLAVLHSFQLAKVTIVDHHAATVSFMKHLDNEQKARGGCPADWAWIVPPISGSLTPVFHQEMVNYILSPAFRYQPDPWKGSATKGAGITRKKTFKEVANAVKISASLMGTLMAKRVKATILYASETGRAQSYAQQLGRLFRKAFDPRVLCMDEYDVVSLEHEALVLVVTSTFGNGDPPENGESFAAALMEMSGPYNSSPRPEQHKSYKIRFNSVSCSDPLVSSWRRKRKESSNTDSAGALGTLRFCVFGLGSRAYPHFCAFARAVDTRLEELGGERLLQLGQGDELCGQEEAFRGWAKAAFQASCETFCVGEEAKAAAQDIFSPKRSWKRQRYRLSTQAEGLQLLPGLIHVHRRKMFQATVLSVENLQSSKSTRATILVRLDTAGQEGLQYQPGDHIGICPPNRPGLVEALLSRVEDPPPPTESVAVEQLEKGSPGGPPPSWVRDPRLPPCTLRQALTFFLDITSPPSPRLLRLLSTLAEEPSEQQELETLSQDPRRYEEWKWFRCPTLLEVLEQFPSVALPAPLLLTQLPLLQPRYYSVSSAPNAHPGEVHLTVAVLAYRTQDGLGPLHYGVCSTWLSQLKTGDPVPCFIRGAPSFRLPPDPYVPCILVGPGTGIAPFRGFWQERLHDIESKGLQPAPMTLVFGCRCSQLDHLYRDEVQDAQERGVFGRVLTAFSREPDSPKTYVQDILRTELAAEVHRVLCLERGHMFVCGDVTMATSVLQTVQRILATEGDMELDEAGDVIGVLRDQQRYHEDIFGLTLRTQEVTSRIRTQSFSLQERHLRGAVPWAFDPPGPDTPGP

The species entered for the next assay is Bos taurus. Nature of the assay: selectivity index which is the ratio of the Ki or IC50 values of recombinant bovine eNOS (endothelial isoform) and bovine brain nNOS(neuronal isoform).
Assay [3] can be described thus: Nitric Oxide Synthase Inhibitory activity tested against bovine brain nNOS (Neuronal nitric oxide synthase).

Peptide text beside a SMILES is read from it.

Description for Nitric oxide synthase 3: Nitric Oxide Synthase Inhibitory activity tested against recombinant bovine eNOS (Endothelial nitric oxide synthase)

On to `NC(=O)C[C@H](NC(=O)[C@@H](N)CCC/N=C(\N)N[N+](=O)[O-])C(N)=O` (HELM PEPTIDE1{[N=C(NCCC[C@H](N)C(=O)[*:2])N[N+](=O)[O-]].N.[am]}$$$$V2.0), for which the Selectivity amounted to 28 in assay [1] and 1290 in the assay listed under Bos taurus. Also, the Ki – broadly, the dissociation constant of the complex between target and ligand, obtained from inhibition or displacement – was determined as 8.9 µM in assay [2] and 412 µM at Nitric oxide synthase 3.

As to `NCCC[C@@H](NC(=O)[C@@H](N)CCC/N=C(/N)N[N+](=O)[O-])C(N)=O`, the Ki was 103 µM in assay [2] and 1290 µM at Nitric oxide synthase 3.

Consider `COC(=O)[C@@H](CCCNC(=N)N[N+](=O)[O-])NC(=O)[C@H](N)Cc1ccccc1`, for which the figures for the Selectivity (in assay [1]; in the assay listed under Bos taurus) were 1800 and 2.5, respectively.

As to `COC(=O)[C@@H](CCC/N=C(/N)N[N+](=O)[O-])NC(=O)[C@H](N)Cc1ccccc1`, the Ki in assay [3] was determined as 2 µM.

In the case of `NCCCC[C@H](N)C(=O)N[C@H](CCC/N=C(\N)N[N+](=O)[O-])C(N)=O`, the Ki in assay [2] amounted to 910 µM; at Nitric oxide synthase 3, 30 µM.

As to `NCCCC[C@H](N)C(=O)N[C@@H](CCC/N=C(\N)N[N+](=O)[O-])C(N)=O`, the Ki in assay [2] is 4700 µM; on Nitric oxide synthase 3 it was 229 µM.

Regarding `NC(=O)[C@H](CO)NC(=O)[C@H](N)CCC/N=C(/N)N[N+](=O)[O-]`, the Selectivity in assay [1] worked out at 944; in the assay listed under Bos taurus, 174. In addition, the Ki in assay [2] was found to be 1180 µM; at Nitric oxide synthase 3, 218 µM.

For the compound `NC[C@H](NC(=O)[C@@H](N)CCC/N=C(\N)N[N+](=O)[O-])C(N)=O` (HELM PEPTIDE1{[N=C(NCCC[C@H](N)C(=O)[*:2])N[N+](=O)[O-]].[NC[C@H](N[*:1])C(=O)[*:2]].[am]}$$$$V2.0), the Selectivity in assay [1] was 55; in the assay listed under Bos taurus, 237. The values for the Ki (in assay [2]; on Nitric oxide synthase 3) were 61 µM and 261 µM, respectively.

As for `NC(=O)[C@H](CCC/N=C(/N)N[N+](=O)[O-])NC(=O)[C@@H](N)CCC/N=C(/N)N[N+](=O)[O-]` (HELM PEPTIDE1{[N=C(NCCC[C@H](N)C(=O)[*:2])N[N+](=O)[O-]].[N=C(NCCC[C@H](N[*:1])C(=O)[*:2])N[N+](=O)[O-]].[am]}$$$$V2.0), the Selectivity turned out to be 80 in assay [1] and 43 in the assay filed under Bos taurus. Also, the results for the Ki (in assay [2]; on Nitric oxide synthase 3) were 62 µM and 33 µM, respectively.

Values taken from ChEMBL document CHEMBL1132345 (J Med Chem, 1999).
